Reference: patent US20070212331A1, “Methods and compositions for selectively killing cells” (priority 2006, published 2007)

Legend:
[1] = test system: PC3 cells (prostate cancer cell line); test: Killing of PC3 cells by zinc and zinc-containing liposomes; format: cell-based; conditions: PC3 cells in culture (FIG. 6)
Description: These cells express high levels of the transferrin receptor and can be targeted by covalently attaching transferrin to the formed liposomes.
We next tested the ability of these liposomes to kill PC3 cells in culture (FIG. 6).
Non-prophetically, zinc containing liposomes were prepared by injecting ethanolic solutions of lipids into 10 mM Hepes buffer pH 6 containing 2.5 M ZnCl2. To make the ethanolic lipid solution, lipids initially dissolved in chloroform were dried by passing gaseous nitrogen over the solution. The dried lipids were dissolved in ethanol at a concentration of […] of phospholipids per mL of alcohol. The alcoholic lipid solution containing dioleoyl phosphatidyly choline, 1,2 dioleoyl phosphatidyly ethanolamine, 1,2 dioleolyl phosphatidyletanolamine-N-4-(p-maleimido-phenyl)butyramide) and cholesterol in a ratio of 7:2:0.05:1 was slowly (0.5 ml/min) injected through a Hamilton syringe into 3 mL of a magnetically stirred Hepes buffer, containing 2.5 mM ZnCl2 The final concentration of ethanol was between 2.5-7.5%. During injection of the lipids, the solution was constantly stirred by a standard magnetic stirrer. To ensure that the temperature of the liposome solution was well above the phase transition of the lipids, the temperature was kept at […]. […]

ERK1/2 = ERK1/2 activation in IIC9 cells, Western blot with anti-pERK antibody; format: cell-based; set-up: time until ERK activation is detected after zinc addition / time ERK activation remains elevated: dose or concentration left out as unconfirmed; conditions: IIC9 cells
Description: (§1) Assays: ERK1/2 activation was determined by harvesting cells directly in boiling SDS-PAGE sample buffer and probing corresponding Western Blots with anti-pERK antibody (Cell Signaling). Blots were stripped and reprobed for total ERK (Cell Signaling). Ras activation was determined using the Raf-RBD assay (21,24). Identification of the specific Ras isoform activated was determined by probing the western blot with isoform-specific antibody (Upstate Biotechnology). Transfection of IIC9 cells was carried out using Novafector. Transfection efficiency of these cells is approximately 90%. The constructs for expression of dn-Ras and Bcl-Xl were kindly provided by Dr. J. Corbett and Dr. Chinnaduri (SLU).

PC12 cells = test: Zinc-induced cell death of PC12 cells; format: cell-based; set-up: cell lysis (indicative of necrosis) of PC12 cells: dose or concentration left out as unconfirmed
ERK = ERK activation (pERK) in PC12 cells; format: cell-based
[2] = test system: IIC9 cells (embryonic fibroblasts); test: IIC9 cell death by trypan blue uptake; format: cell-based; conditions: for cell death: 6 h (FIG. 1A)
[3] = test system: N18TG2 (neuroblastoma) cells; test: Zinc-induced death of N18TG2 (neuroblastoma) cells; format: cell-based; conditions: 24 h incubation
Description: Exemplary cell types were treated in vitro with varying amounts of zinc (zinc chloride or zinc sulfate), in the presence or absence of the zinc ionophore pyrithione. […] Cell death involves both apoptosis and necrosis as determined by morphological observation.

Ras = Ras activation in IIC9 cells, Raf-RBD pull-down assay; format: cell-based; conditions: IIC9 cells
Description: as §1
Because Ras is a common upstream activator of ERK1/2 (36), we reasoned that zinc may induce the phosphorylation of ERK1/2 via Ras. This was examined by incubating IIC9 cells with 100 uM zinc and assessing Ras activation by RBD pull-down of GTP-Ras followed by Western blot analysis with a pan-Ras antibody. […] The critical role of Ras in mediating the effects of zinc was confirmed by examining the effect of over-expression of dnRas. […] Consistent with Ras as the upstream activator of the cytotoxic effect of zinc on IIC9, expression of dn H-Ras also attenuates zinc-mediated cell death (FIG. 5B).

RAW (macrophage) cells = test: Zinc-induced death of RAW (macrophage) cells; format: cell-based
Description: Exemplary cell types were treated in vitro with varying amounts of zinc (zinc chloride or zinc sulfate), in the presence or absence of the zinc ionophore pyrithione.

[4] = test system: IIC9 cells (embryonic fibroblasts); test: IIC9 cell morphology, microscopic examination; format: cell-based
Description: FIG. 1 depicts zinc-induced cell death in a time and dose dependent manner. (A) IIC9 cells (embryonic fibroblasts) were serum starved for 2 days and treated with the indicated concentrations of zinc for the indicated time periods. Cell death was monitored by trypan blue exclusion as described in the Materials and Methods. (B-D) Zinc-induced cell death is accompanied by morphological changes associated with apoptosis and necrosis. Shown are cells that were incubated with either 50 μM (C) or 200 μM (D) zinc for 6 hours. Control cells (B) were untreated. Cells were examined microscopically for changes in cell shape and size. […] Cell debris, indicative of cell lysis, was evident.
Cells and Incubation Conditions: IIC9 cells were grown in DMEM containing 10% FCS, P/S. Cells were plated in 12-well plates and grown to approximately 70% confluency. At that time, cells were serum arrested by changing the medium to DMEM (low glucose) without FCS. After 48 hours, cells were treated with zinc as described in the text. Cell death was quantified by trypan blue uptake. Cells were incubated with trypan blue (0.04%) for 5 min. Cells were examined microscopically and the number of blue cells and total cells were counted. Four fields were examined for each condition, with a minimum of 100 cells/field. To examine the effects of selective inhibitors, cells were preincubated with the indicated compound for 30 min. prior to zinc treatment.

[5] = test system: CD4+ CD8+ alpha beta TCR10CD3(10) thymocytes; conditions: 80-200 μM zinc; cited from earlier work

Structure (SMILES): [Cl-].[Cl-].[Zn+2] [zinc]
- cell death of PC3 cells [1]: underwent cell death
- induction of pERK (ERK1/2; western blotting with pERK antibody (FIG. 2E)): does induce pERK
- time until ERK activation is detected after zinc addition (ERK1/2; zinc): ≤ 5 min
- time ERK activation remains elevated (ERK1/2; zinc, longest time period examined): at least 6 h
- cell lysis (indicative of necrosis) of PC12 cells (PC12 cells; higher zinc concentrations or longer time periods): significant cell lysis
- cell death of PC12 cells (PC12 cells; undifferentiated or differentiated PC12 cells, in vitro): time and dose-dependent cell death
- time until pERK could be detected (ERK; PC12 cells, after zinc treatment): within five minutes
- time pERK remained at that level (ERK; PC12 cells, longest time period examined): at least five hours
- ERK activation (ERK; zinc treatment of PC12 cells): induced ERK activation
- death of the population ([2]; 50 μM zinc, 6-h incubation, experiment of FIG. 2A): approximately 25%
- cell death ([2]; 50 μM zinc): ~15%
- cell death ([2]; 100 μM zinc): ~25%
- cell death ([2]; 200 μM zinc): approximately 45%
- extracellular zinc concentration necessary to induce the death pathway ([2]; IIC9 cells, in the absence of pyrithione): ≥ 50 µM
- cell death of IIC9 cells ([2]; addition of zinc): time- and concentration-dependent
- cell death during the first few hours ([2]; zinc concentrations as high as 200 μM, first few hours): Little or no death
- % death ([3]; 25 μM zinc): 19%
- % death ([3]; 50 μM zinc): 75%
- % death ([3]; 75 μM zinc): 84%
- % death ([3]; 150 μM zinc): 90%
- activation of Ras (Ras; 100 uM zinc, pan-Ras antibody (FIG. 5A)): ~5 fold
- Ras isoform activated (Ras; isoform-specific antibody): selective activation of H-Ras
- % cell death (RAW (macrophage) cells; 25 μM zinc, 0.0 hours of incubation): 0.0%
- % cell death (RAW (macrophage) cells; 25 μM zinc, 1.0 hours of incubation): 0.0%
- % cell death (RAW (macrophage) cells; 25 μM zinc, 3.0 hours of incubation): 0.0%
- % cell death (RAW (macrophage) cells; 25 μM zinc, 5.0 hours of incubation): 0.0%
- % cell death (RAW (macrophage) cells; 50 μM zinc, 5.0 hours of incubation): 0.0%
- % cell death (RAW (macrophage) cells; 50 μM zinc, 18.0 hours of incubation): 20.0%
- % cell death (RAW (macrophage) cells; 100 μM zinc, 18.0 hours of incubation): 100.0%
- cell morphology ([4]; 50 μM zinc, 6 hours (FIG. 1C)): rounded and displayed differing degrees of cell shrinkage
- cell population displaying a rounded morphology ([4]; 50 μM zinc, first few hours of incubation): approximately 50%
- cell morphology ([4]; 200 μM zinc, 6 hours (FIG. 1D)): more varied morphology
- cell morphology ([4]; 100 or 200 uM zinc, first few hours): all cells were rounded and underwent differing degrees of cell shrinkage
- thymocytes in which apoptosis was induced [5]: 40%
